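Values below derive from 48-hour exposures of cells grown in 96-well plates, with endpoints linearly interpolated between the two concentrations bracketing the appropriate inhibition level. GI50 = concentration required for 50% inhibition of growth.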 Activity calls are given as the source filed them. Cut-off read from the data, not from the text of the source: active = GI50 up to about 1.1 µM and inactive = higher.
Key:
Assay in all cases: inhibition of tumour cell growth, NCI panel, 48 h
786-0 = system: 786-0
BT-549 = system: BT-549
COLO 205 = system: COLO 205
DU-145 = system: DU-145
HCT-116 = system: HCT-116
HL-60 = system: HL-60
HOP-62 = system: HOP-62
HT-29 = system: HT-29
K562 = system: K562
M14 = system: M14
MDA-MB-435 = system: MDA-MB-435
Malme-3M = system: Malme-3M
RXF 393 = system: RXF 393
SF-295 = system: SF-295
SK-MEL-28 = system: SK-MEL-28
SK-MEL-2 = system: SK-MEL-2
SN12C = system: SN12C
TK-10 = system: TK-10
NCI-H522 = system: NCI-H522

Measured: GI50

CCOP(=O)(OCC)C(NC(=O)C(C(F)(F)F)C(F)(F)F)c1ccccc1 (stereo unspecified)
inactive: 786-0 > 100 µM | BT-549 > 10 µM | COLO 205 > 100 µM | DU-145 > 100 µM | HCT-116 > 100 µM | HL-60 24.6 µM | HOP-62 > 100 µM | HT-29 > 100 µM | K562 61.2 µM | M14 > 100 µM | MDA-MB-435 > 100 µM | Malme-3M > 100 µM | RXF 393 > 100 µM | SF-295 > 100 µM | SK-MEL-28 > 100 µM | SK-MEL-2 > 100 µM | SN12C > 100 µM | TK-10 > 100 µM

CC(=O)N1N=C(c2ccccc2Nc2ccccc2C2=NN(C(C)=O)C(c3ccccc3)O2)OC1c1ccccc1 (stereo unspecified)
inactive: 786-0 > 100 µM | BT-549 87.5 µM | COLO 205 18.6 µM | DU-145 > 100 µM | HCT-116 32.5 µM | HOP-62 > 100 µM | HT-29 25.5 µM | K562 30.7 µM | M14 56.1 µM | MDA-MB-435 14.7 µM | Malme-3M > 100 µM | NCI-H522 36.1 µM | RXF 393 46.8 µM | SF-295 32.8 µM | SK-MEL-28 > 100 µM | SK-MEL-2 73.3 µM | SN12C > 100 µM | TK-10 > 100 µM

NC(CCC(=O)O)(CCC(=O)O)CCC(=O)O
inactive: 786-0 > 100 µM | BT-549 > 100 µM | COLO 205 > 100 µM | DU-145 > 100 µM | HCT-116 > 100 µM | HT-29 > 100 µM | K562 > 100 µM | M14 > 100 µM | MDA-MB-435 > 100 µM | Malme-3M > 100 µM | NCI-H522 11.5 µM | RXF 393 > 100 µM | SF-295 > 100 µM | SK-MEL-2 > 100 µM | SN12C > 100 µM | TK-10 > 100 µM

CN(C)c1ccc(/C=N\NC(=O)c2ccccc2Nc2ccccc2C(=O)N/N=C/c2ccc(N(C)C)cc2)cc1
inactive: 786-0 > 100 µM | BT-549 > 100 µM | COLO 205 97.5 µM | DU-145 > 100 µM | HCT-116 > 100 µM | HOP-62 > 100 µM | HT-29 > 100 µM | K562 > 100 µM | M14 31.7 µM | MDA-MB-435 > 100 µM | Malme-3M 38.5 µM | RXF 393 > 100 µM | SF-295 > 100 µM | SK-MEL-28 90.4 µM | SK-MEL-2 > 100 µM | SN12C > 100 µM | TK-10 > 100 µM

Nc1ccc(Cc2ccc(N)c(C(=O)O)c2)cc1C(=O)O
inactive: 786-0 > 100 µM | BT-549 > 100 µM | COLO 205 > 100 µM | HCT-116 > 100 µM | HL-60 > 100 µM | HOP-62 > 100 µM | HT-29 > 100 µM | K562 > 100 µM | M14 > 100 µM | MDA-MB-435 > 100 µM | Malme-3M > 100 µM | NCI-H522 > 100 µM | RXF 393 > 100 µM | SF-295 > 100 µM | SK-MEL-28 > 100 µM | SK-MEL-2 > 100 µM | SN12C > 100 µM | TK-10 > 100 µM

CC(Cl)CC(=O)OCC1CCCN2CCCCC12 (stereo unspecified)
inactive: 786-0 > 100 µM | BT-549 > 100 µM | COLO 205 > 100 µM | DU-145 > 100 µM | HCT-116 > 100 µM | HL-60 54.7 µM | HOP-62 > 100 µM | HT-29 > 100 µM | K562 > 100 µM | M14 > 100 µM | MDA-MB-435 > 100 µM | Malme-3M > 100 µM | RXF 393 > 100 µM | SF-295 > 100 µM | SK-MEL-28 > 100 µM | SK-MEL-2 > 100 µM | SN12C > 100 µM | TK-10 > 100 µM

CC(C)(C)OC[C@H](O)CC#N
inactive: 786-0 > 100 µM | BT-549 > 100 µM | COLO 205 > 100 µM | DU-145 > 100 µM | HCT-116 > 100 µM | HL-60 > 100 µM | HOP-62 > 100 µM | HT-29 > 100 µM | K562 > 100 µM | M14 > 100 µM | MDA-MB-435 > 100 µM | Malme-3M > 100 µM | RXF 393 > 100 µM | SF-295 > 100 µM | SK-MEL-28 > 100 µM | SK-MEL-2 > 100 µM | SN12C > 100 µM | TK-10 > 100 µM

CCOC(=O)n1c2ccccc2c(=O)n1CCO
inactive: 786-0 > 100 µM | BT-549 > 100 µM | COLO 205 > 100 µM | DU-145 > 100 µM | HCT-116 > 100 µM | HL-60 > 100 µM | HOP-62 > 100 µM | HT-29 > 100 µM | K562 > 100 µM | M14 > 100 µM | Malme-3M > 100 µM | NCI-H522 > 100 µM | RXF 393 24.2 µM | SF-295 > 100 µM | SK-MEL-28 > 100 µM | SK-MEL-2 > 100 µM | SN12C > 100 µM | TK-10 > 100 µM

C#CCOC(=O)c1ccc(OC(C)=O)cc1
inactive: 786-0 > 100 µM | BT-549 > 100 µM | COLO 205 > 100 µM | DU-145 > 100 µM | HCT-116 > 100 µM | HOP-62 > 100 µM | K562 > 100 µM | M14 > 100 µM | MDA-MB-435 > 100 µM | NCI-H522 > 100 µM | RXF 393 > 100 µM | SF-295 > 100 µM | SK-MEL-2 > 100 µM | SN12C > 100 µM | TK-10 > 100 µM

Cc1c(/N=N/c2ccc(Cl)cc2)c(-c2ccccc2)n(C2OC(CO)C(O)C(O)C2O)c(=S)c1C#N (stereo unspecified)
inactive: 786-0 20.2 µM | BT-549 16 µM | COLO 205 21.2 µM | DU-145 19 µM | HCT-116 14.3 µM | HL-60 32.6 µM | HOP-62 19.1 µM | HT-29 16.6 µM | K562 13.6 µM | M14 17.4 µM | MDA-MB-435 10.5 µM | Malme-3M 25.5 µM | RXF 393 15 µM | SF-295 24.9 µM | SK-MEL-28 15.4 µM | SK-MEL-2 18.8 µM | SN12C 16.6 µM | TK-10 21.2 µM

NC(CCP(=O)(O)O)C(=O)O (stereo unspecified)
inactive: 786-0 > 100 µM | BT-549 > 100 µM | HCT-116 > 100 µM | HL-60 > 100 µM | HOP-62 > 100 µM | HT-29 > 100 µM | K562 > 100 µM | M14 > 100 µM | MDA-MB-435 > 100 µM | Malme-3M > 100 µM | NCI-H522 > 100 µM | RXF 393 > 100 µM | SF-295 > 100 µM | SK-MEL-28 > 100 µM | SK-MEL-2 > 100 µM | SN12C > 100 µM | TK-10 > 100 µM
